Assay results reported in patent US10947188B2, “Small molecule ferroptosis inducers” (THE TRUSTEES OF COLUMBIA UNIVERSITY IN THE CITY OF NEW YORK, priority 2016, dated 2021).
Each block holds one compound with its values, some of them ahead of it. Where a SMILES comes first, the peptide text is derived from it. The star is where a group is joined. Cbz = O=C(OCc1ccccc1)*

How the values were obtained:
[1] = test system: BJeLR, DRD, BJeHLT, and BJeH; assay: Viability of four engineered BJ cell lines (HRAS G12V selectivity); type: cell-based, human; conditions: 48 h
HT-1080 or BJeLR cells = assay: Analysis of ROS generation (H2-DCFDA flow cytometry); type: cell-based
Method: Grew 200,000 HT-1080 or BJeLR cells in six-well plates at 37° C. for 16 h. Cells were treated with test compounds, trypsinized, pelleted, and washed once with PBS. For lipophilic or aqueous ROS detection, cells were re-suspended in Hanks' Balanced Salt Solution (HBSS; Life Technologies) containing test compounds as well as C11-BODIPY(581/591) (2 μM) or H2-DCFDA (25 μM), respectively (Life Technologies), and incubated for 10 min at 37° C. Cells were then pelleted, re-suspended in 500 μL HBSS, strained through a 40-μm cell strainer (BD Falcon), and analyzed using a BD Accuri C6 flow cytometer (BD Biosciences). Both dyes were measured in the FL1 channel. Experiments were done in biological triplicates.

HT-1080 cells = assay: Cell viability assay (Alamar Blue), lethal compounds with or without modulators; type: cell-based; conditions: HT-1080 cells; for effect of ferroptosis inhibitors (α-tocopherol, deferoxamine) on lethality: cotreatment
How it was run: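 HT-1080 cells, 1,000 per well, given twofold 12-point lethal compound series at seeding, 24 h at 37 °C; modulators (100 nM selenite, 1 µM cerivastatin, 100 µg/mL mevalonate) added 24 h before. Alamar Blue 6 h, fluorescence 530/590; viability normalized to vehicle (or modulator) and media wells, typically biological triplicate.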

GPX4 [2] = target: T1, GPX4 (Homo sapiens, UniProt P36969); assay: GPX4 enzymatic activity assay in lysates of treated cells (LC-MS); type: cell-based; conditions: BJeLR; 5 μM FIN56 for 10 h
T1 construct: Cells were sonicated to make cell lysates that were then cleared by centrifugation; endogenous in cells; host or cells: BJeLR cells (lysate of compound-treated cells)
T1 sequence (P36969 1-197): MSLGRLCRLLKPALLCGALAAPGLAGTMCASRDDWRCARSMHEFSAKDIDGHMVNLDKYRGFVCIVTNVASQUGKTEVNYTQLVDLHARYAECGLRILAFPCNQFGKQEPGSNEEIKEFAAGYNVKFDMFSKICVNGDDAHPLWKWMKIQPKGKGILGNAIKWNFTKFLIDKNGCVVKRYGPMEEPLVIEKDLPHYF
Method: Seeded 17 million BJeLR cells in 225-cm^2 tissue culture flasks (Corning). We then added vehicle (0.1% DMSO for 11 h) or test compound (10 μM erastin for 11 h, 0.5 μM (1S,3R)-RSL3 for 2 h, or 5 μM FIN56 for 10 h). The GPX4 enzymatic activity assay was performed as described previously (Yang et al. 2014). Briefly, 10 million cells were resuspended in cell lysis buffer. Cells were sonicated to make cell lysates that were then cleared by centrifugation at 14,000 r.p.m. for 10 min. The protein concentration of the cleared cell lysates was determined via Bradford protein assay. Mixed 200 μg of cellular protein with phosphatidyl choline hydroperoxide, a GPX4-specific substrate, and reduced glutathione, a GPX4 cofactor. The mixture was incubated at 37° C. for 30 min and then subjected to lipid extraction using chloroform:methanol (2:1) solution. The lipid extract was evaporated using a Rotavap and re-dissolved in 100% ethanol before being injected into the LC-MS instrument for 2-linoleoyl1-palmitoyl-sn-glycero-3-phosphocholine (PLPC) quantitation.

GPX1 = assay: Western blotting of GPX1 protein abundance; type: cell-based, human; conditions: BJeLR; FIN56 5 μM, 10 h
Method: (§1) Seeded 300,000 cells (HT-1080 or BJeLR) per well in six-well plates. For cotreatment, ferroptosis inducers (10 μM erastin for 11 h, 0.5 μM (1S, 3R)-RSL3 for 2 h, or 5 μM FIN56) and 100 μM α-tocopherol were added to cell culture at the same time, and cells were then incubated for 10 h (FIG. 2E). When other death-modulating compounds (100 nM sodium selenite, 1 μM cerivastatin, 100 μg/mL mevalonic acid, 30 μM C75, or 2 μM cerulenin) were used in cotreatments, cells were pre-incubated with the modulators for 24 h before being treated with ferroptosis inducers for 6 h. Cell lysis, SDS-PAGE and protein transfer to PVDF membrane were performed as previously described (Dixon et al. 2012). We used the following antibodies: anti-human α-tubulin (Santa Cruz Biotechnology, sc-32293, 1:10,000 dilution), anti-human GPX4 (Abcam, ab41787, 1:2,000 dilution), anti-human GPX1 (R&D Systems, AF3798, 1:1,000 dilution), and anti-human SQS (Abcam, ab109723 for full-length, ab195046 for truncated, both at 1:1,000 dilution). Secondary antibodies were from LI-COR (1:3,000 dilution). The PVDF membranes labeled with primary and secondary antibodies were scanned using an Odyssey Imaging System (LI-COR). Experiments were performed in biological triplicates, and the mean±s.e. of intensity was plotted.

GPX4 [3] = assay: Western blotting of GPX4 protein abundance; type: cell-based, human
Method: as §1

GPX4 transcripts = assay: Reverse-transcription quantitative PCR of GPX4 transcripts; type: cell-based; conditions: 5 μM FIN56
Method: Trypsinized 0.2 to 1 million cells grown in six-well dishes, pelleted them, resuspended them in Buffer RLT (Qiagen), and homogenized them with QlAshredder (Qiagen). RNA was further extracted using the RNeasy Mini Kit (Qiagen). We converted 2 μg of extracted RNA from each sample into cDNA using TaqMan reverse-transcription reagents (Life Technologies). qPCR primers were designed to detect all splicing variants using Primer Express 2.0 (Applied Biosystems). The designed primers were confirmed to amplify only the designated gene transcripts using in silico PCR (see, e.g., http://genome.ucsc.edu/cgi-bin/hgPcr). For qPCR reactions, primers, cDNA, and Power SYBR Green PCR Master Mix (Applied Biosystems) were mixed, and quantitation was performed using a StepOnePlus real-time PCR system (Applied Biosystems). Experiments were done in biological triplicates.

Compound: N/C(=N\OC(=O)C12CC3CC(CC(C3)C1)C2)c1ccccc1 [CIL41]
oncogenic RAS selectivity in the BJ engineered cell line series [1]: did not exhibit oncogenic RAS selectivity
ROS accumulation detected using H2-DCFDA (HT-1080 or BJeLR cells): induced ROS accumulation
effect of ferroptosis inhibitors (α-tocopherol, deferoxamine) on lethality (HT-1080 cells): strongly suppressed by ferroptosis inhibitors

GPX4 activity in cell lysates (GPX4 [2]): loss of GPX4 activity
Compound: O=S(=O)(NC1CCCCC1)c1ccc2c(c1)C(=NO)c1cc(S(=O)(=O)NC3CCCCC3)ccc1-2 [FIN56, N2,N7-dicyclohexyl-9-(hydroxyimino)-9H-fluorene-2,7-disulfonamide]
abundance of GPX1 protein (GPX1): but not that of the related selenoprotein GPX1, was substantially decreased
abundance of GPX4 protein (GPX4 [3]; BJeLR, cotreatment with 100 μM α-tocopherol, 10 h, FIN56 5 μM): substantially decreased
oncogenic RAS selectivity in the BJ engineered cell line series [1]: greater oncogenic RAS selectivity
potency compared to CIL56 ([1]; BJ cell line series): greater potency
kinetics of ROS accumulation compared to (1S, 3R)-RSL3 (HT-1080 or BJeLR cells; BJeLR, 5 μM FIN56 vs 0.5 μM (1S, 3R)-RSL3, 25 μM H2-DCFDA): slower to induce the accumulation of ROS
effect of ferroptosis inhibitors (α-tocopherol, deferoxamine) on lethality (HT-1080 cells): fully suppressed
suppression of lethality by mevalonate-pathway modulators (FPP, YM-53601, idebenone) and α-tocopherol (HT-1080 cells; modulatory profiling scheme): potently suppressed by all the compounds
GPX4 transcript level (GPX4 transcripts): increased, rather than decreased

Compound: CC(C)C[C@@H](C=O)NC(=O)[C@H](CC(C)C)NC(=O)[C@H](CC(C)C)NC(=O)OCc1ccccc1 [MG132, reference compound] (Cbz-Leu-Leu-Leu-aldehyde)
effect on FIN56-induced decrease of GPX4 protein abundance (GPX4 [3]; 5 μM FIN56): did not inhibit GPX4 degradation significantly

Compound: C[C@@H]1C[C@@H]([C@H](O)CC2CC(=O)NC(=O)C2)C(=O)[C@@H](C)C1 [cycloheximide, Cycloheximide, reference compound]
amount of GPX4 protein compared to α-tubulin after translation inhibition (GPX4 [3]): did not show substantially decreased amounts of GPX4 protein
